Values joined by “and” are separate entries in the source; they are usually repeats but may differ in a detail not shown here. Equal entries are not always repeated. Results filed as inconclusive are left out.
Test system: Lewis lung carcinoma i.m., BDF1 mice, T/C %
Test: NCI In Vivo Anticancer Drug Screen. Data for tumor model Lewis Lung Carcinoma (intramuscular) in B6D2F1 (BDF1) mice
In short: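 Mice carrying transplantable tumours received test compound. Survival or tumour size was recorded and expressed as the treated-group value (T) divided by the vehicle-treated control-group value (C).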

In the case of `CCCCCCCCCCCC(c1ccccc1)[N+](C)(C)Cc1ccccc1` (centres undefined), the T/C (endpoint: mean tumor weight (est.), dose: 0.25 mg/kg/injection, schedule: Q01DX011 (ip), vehicle: saline, higher = larger tumour) is reported as 80 % of control, the T/C (endpoint: mean tumor weight (est.), dose: 0.5 mg/kg/injection, schedule: Q01DX011 (ip), vehicle: saline, higher = larger tumour) is reported as 70 % of control and the T/C (endpoint: mean tumor weight (est.), dose: 1.0 mg/kg/injection, schedule: Q01DX011 (ip), vehicle: saline, higher = larger tumour) is reported as 61 % of control. The T/C (endpoint: median survival time, dose: 0.25 mg/kg/injection, schedule: Q01DX011 (ip), vehicle: saline, higher = longer survival) was 87 % of control, the T/C (endpoint: median survival time, dose: 0.5 mg/kg/injection, schedule: Q01DX011 (ip), vehicle: saline, higher = longer survival) was 91 % of control and the T/C (endpoint: median survival time, dose: 1.0 mg/kg/injection, schedule: Q01DX011 (ip), vehicle: saline, higher = longer survival) was 120 % of control.
With `CO[C@H]1/C=C/O[C@@]2(C)Oc3c(C)c(O)c4c(O)c(c(/C=N/N5C(C)CN(Cc6ccccc6)CC5C)c(O)c4c3C2=O)NC(=O)/C(C)=C\C=C\[C@H](C)[C@H](O)[C@@H](C)[C@@H](O)[C@@H](C)[C@H](OC(C)=O)[C@@H]1C` (some centres undefined) the T/C (endpoint: median survival time, dose: 25.0 mg/kg/injection, schedule: Q02DX009 (ip), vehicle: other, higher = longer survival) was 117 % of control, the T/C (endpoint: median survival time, dose: 50.0 mg/kg/injection, schedule: Q02DX009 (ip), vehicle: Klucel (hydroxypropylcellulose) (HPC), higher = longer survival) was 114 % of control and the T/C (endpoint: median survival time, dose: 50.0 mg/kg/injection, schedule: Q02DX009 (ip), vehicle: other, higher = longer survival) was 107 % of control. For the same compound, the T/C (endpoint: median survival time, dose: 200.0 mg/kg/injection, schedule: Q02DX009 (ip), vehicle: Klucel (hydroxypropylcellulose) (HPC), higher = longer survival) was 98 % of control, the T/C (endpoint: median survival time, dose: 200.0 mg/kg/injection, schedule: Q02DX009 (ip), vehicle: other, higher = longer survival) was 87 % of control and the T/C (endpoint: median survival time, dose: 400.0 mg/kg/injection, schedule: Q02DX009 (ip), vehicle: Klucel (hydroxypropylcellulose) (HPC), higher = longer survival) was 98 % of control.
`O=NN(CCCl)C(=O)NCCCl` was tested, and the T/C (endpoint: mean tumor weight, dose: 1.5 mg/kg/injection, schedule: Q01DX011 (ip), vehicle: other, higher = larger tumour) was 57 % of control, the T/C (endpoint: mean tumor weight, dose: 3.0 mg/kg/injection, schedule: Q01DX011 (ip), vehicle: other, higher = larger tumour) was 47 % of control and the T/C (endpoint: mean tumor weight, dose: 6.0 mg/kg/injection, schedule: Q01DX011 (ip), vehicle: other, higher = larger tumour) was 12 % of control. For the same compound, the T/C (endpoint: mean tumor weight, dose: 14.0 mg/kg/injection, schedule: Q01DX001 (sc), vehicle: saline, higher = larger tumour) was 76 % of control, the T/C (endpoint: mean tumor weight, dose: 23.0 mg/kg/injection, schedule: Q01DX001 (sc), vehicle: saline, higher = larger tumour) was 65 % of control and the T/C (endpoint: mean tumor weight, dose: 39.0 mg/kg/injection, schedule: Q01DX001 (sc), vehicle: saline, higher = larger tumour) was 35 % of control. The T/C (endpoint: mean tumor weight, dose: 65.0 mg/kg/injection, schedule: Q01DX001 (sc), vehicle: saline, higher = larger tumour) was 22 % of control, the T/C (endpoint: median survival time, dose: 1.0 mg/kg/injection, schedule: Q01DX009 (ip), vehicle: saline + alcohol, higher = longer survival) was 113 % of control and the T/C (endpoint: median survival time, dose: 1.25 mg/kg/injection, schedule: Q01DX015 (ip), vehicle: saline, higher = longer survival) was 108 % of control. The T/C (endpoint: median survival time, dose: 1.5 mg/kg/injection, schedule: Q01DX011 (ip), vehicle: other, higher = longer survival) was 102 % of control, the T/C (endpoint: median survival time, dose: 1.5 mg/kg/injection, schedule: Q01DX011 (ip), vehicle: saline, higher = longer survival) was 110 % of control and the T/C (endpoint: median survival time, dose: 2.0 mg/kg/injection, schedule: Q01DX011 (ip), vehicle: saline, higher = longer survival) was 97 % of control. The T/C (endpoint: median survival time, dose: 2.5 mg/kg/injection, schedule: Q01DX015 (ip), vehicle: saline, higher = longer survival) was 124 % of control, the T/C (endpoint: median survival time, dose: 3.0 mg/kg/injection, schedule: Q01DX011 (ip), vehicle: other, higher = longer survival) was 104 % of control and the T/C (endpoint: median survival time, dose: 4.0 mg/kg/injection, schedule: Q01DX009 (ip), vehicle: saline + alcohol, higher = longer survival) was 113 % of control. For the same compound, the T/C (endpoint: median survival time, dose: 4.0 mg/kg/injection, schedule: Q01DX011 (ip), vehicle: saline, higher = longer survival) was 115 % of control, the T/C (endpoint: median survival time, dose: 5.0 mg/kg/injection, schedule: Q01DX001 (ip), vehicle: saline + alcohol, higher = longer survival) was 107 % of control and the T/C (endpoint: median survival time, dose: 5.0 mg/kg/injection, schedule: Q01DX015 (ip), vehicle: saline, higher = longer survival) was 111 % of control. For the same compound, the T/C (endpoint: median survival time, dose: 5.0 mg/kg/injection, schedule: Q07DX003 (ip), vehicle: saline, higher = longer survival) was 95 % of control, the T/C (endpoint: median survival time, dose: 5.0 mg/kg/injection, schedule: Q16DX002 (ip), vehicle: saline, higher = longer survival) was 167 % of control and the T/C (endpoint: median survival time, dose: 5.0 mg/kg/injection, schedule: Q## X002 (ip), vehicle: saline, higher = longer survival) was 168 % of control. For the same compound, the T/C (endpoint: median survival time, dose: 6.0 mg/kg/injection, schedule: Q01DX011 (ip), vehicle: saline, higher = longer survival) was 157 % of control, the T/C (endpoint: median survival time, dose: 8.0 mg/kg/injection, schedule: Q01DX011 (ip), vehicle: saline, higher = longer survival) was 102 % of control and 110 % of control and the T/C (endpoint: median survival time, dose: 8.4 mg/kg/injection, schedule: Q01DX001 (ip), vehicle: saline, higher = longer survival) was 158 % of control and 160 % of control. The T/C (endpoint: median survival time, dose: 8.4 mg/kg/injection, schedule: Q06DX002 (ip), vehicle: saline, higher = longer survival) was 105 % of control, the T/C (endpoint: median survival time, dose: 8.4 mg/kg/injection, schedule: Q16DX002 (ip), vehicle: saline, higher = longer survival) was 89 % of control and the T/C (endpoint: median survival time, dose: 8.4 mg/kg/injection, schedule: Q## X002 (ip), vehicle: saline, higher = longer survival) was 87 % of control. The T/C (endpoint: median survival time, dose: 10.0 mg/kg/injection, schedule: Q01DX001 (ip), vehicle: saline + alcohol, higher = longer survival) was 111 % of control, the T/C (endpoint: median survival time, dose: 10.0 mg/kg/injection, schedule: Q07DX003 (ip), vehicle: saline, higher = longer survival) was 94 % of control and the T/C (endpoint: median survival time, dose: 14.0 mg/kg/injection, schedule: Q01DX001 (ip), vehicle: saline, higher = longer survival) was 156 % of control and 157 % of control. The T/C (endpoint: median survival time, dose: 14.0 mg/kg/injection, schedule: Q01DX001 (sc), vehicle: saline, higher = longer survival) was 112 % of control, the T/C (endpoint: median survival time, dose: 14.0 mg/kg/injection, schedule: Q06DX002 (ip), vehicle: saline, higher = longer survival) was 102 % of control and the T/C (endpoint: median survival time, dose: 14.0 mg/kg/injection, schedule: Q07DX003 (ip), vehicle: saline, higher = longer survival) was 102 % of control. For the same compound, the T/C (endpoint: median survival time, dose: 16.0 mg/kg/injection, schedule: Q01DX011 (ip), vehicle: saline, higher = longer survival) was 91 % of control, the T/C (endpoint: median survival time, dose: 20.0 mg/kg/injection, schedule: Q01DX001 (ip), vehicle: saline + alcohol, higher = longer survival) was 123 % of control and the T/C (endpoint: median survival time, dose: 20.0 mg/kg/injection, schedule: Q07DX003 (ip), vehicle: saline, higher = longer survival) was 111 % of control. For the same compound, the T/C (endpoint: median survival time, dose: 23.0 mg/kg/injection, schedule: Q01DX001 (ip), vehicle: saline, higher = longer survival) was 208 % of control and 210 % of control, the T/C (endpoint: median survival time, dose: 23.0 mg/kg/injection, schedule: Q06DX002 (ip), vehicle: saline, higher = longer survival) was 109 % of control and the T/C (endpoint: median survival time, dose: 23.0 mg/kg/injection, schedule: Q07DX003 (ip), vehicle: saline, higher = longer survival) was 108 % of control. For the same compound, the T/C (endpoint: median survival time, dose: 39.0 mg/kg/injection, schedule: Q01DX001 (ip), vehicle: saline, higher = longer survival) was 216 % of control and 218 % of control, the T/C (endpoint: median survival time, dose: 39.0 mg/kg/injection, schedule: Q06DX002 (ip), vehicle: saline, higher = longer survival) was 102 % of control and the T/C (endpoint: median survival time, dose: 39.0 mg/kg/injection, schedule: Q16DX002 (ip), vehicle: saline, higher = longer survival) was 61 % of control and 101 % of control. For the same compound, the T/C (endpoint: median survival time, dose: 39.0 mg/kg/injection, schedule: Q## X002 (ip), vehicle: saline, higher = longer survival) was 104 % of control, the T/C (endpoint: median survival time, dose: 40.0 mg/kg/injection, schedule: Q01DX001 (ip), vehicle: saline + alcohol, higher = longer survival) was 64 % of control and the T/C (endpoint: median survival time, dose: 65.0 mg/kg/injection, schedule: Q01DX001 (ip), vehicle: saline, higher = longer survival) was 38 % of control. For the same compound, the T/C (endpoint: median survival time, dose: 65.0 mg/kg/injection, schedule: Q06DX002 (ip), vehicle: saline, higher = longer survival) was 45 % of control and the T/C (endpoint: median survival time, dose: 65.0 mg/kg/injection, schedule: Q16DX002 (ip), vehicle: saline, higher = longer survival) was 24 % of control.

Source: PubChem BioAssay AID272 (DTP/NCI, 2004)
